Experimental data: the supplement of paper PMC10477900
Structures can show the parent of a compound that is named as a salt.

Legend:
[1] = test system: HCT116; conditions: 72 h
Experimental: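 HCT116 control and MTA1-KO (CRISPR) HCT116 cells were seeded in 384-well plates (800 cells/well), treated 16 h later with 237 metabolism-related anticancer drugs at five doses (10 uM, 2 uM, 400 nM, 80 nM, 16 nM) for 72 h, two replicates; viability by CCK8. Values are % inhibition of viability relative to untreated cells, plus fitted IC50.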

[2] = test system: HCT116; assay: viability inhibition vs untreated; higher = more cytotoxic; conditions: 72 h

SMILES	IC50 ([1]; genotype: MTA1-KO) [µM]	IC50 ([1]; genotype: control) [µM]	viability inhibition ([2]; genotype: MTA1-KO, 16 nM) [%]	viability inhibition ([2]; genotype: MTA1-KO, 80 nM) [%]	viability inhibition ([2]; genotype: MTA1-KO, 400 nM) [%]	viability inhibition ([2]; genotype: MTA1-KO, 2000 nM) [%]	viability inhibition ([2]; genotype: MTA1-KO, 10000 nM) [%]	viability inhibition ([2]; genotype: control, 16 nM) [%]	viability inhibition ([2]; genotype: control, 80 nM) [%]	viability inhibition ([2]; genotype: control, 400 nM) [%]	viability inhibition ([2]; genotype: control, 2000 nM) [%]	viability inhibition ([2]; genotype: control, 10000 nM) [%]
CC(C)(Sc1cc(C(C)(C)C)c(O)c(C(C)(C)C)c1)Sc1cc(C(C)(C)C)c(O)c(C(C)(C)C)c1 [Probucol]	> 10	> 10	-5.9	-11	-1.83	-5.06	-0.265	6.44	11.6	-2.62	16.6	9.78
CCc1nc(N)nc(N)c1-c1ccc(Cl)cc1 [Pyrimethamine]	6.54	4.89	-6.42	-11.6	-0.866	10.9	60.5	2.52	7.55	13.3	20.1	82.3
OCc1ccc(-c2ccc(-c3ccc(CO)s3)o2)s1 [RITA]	1.21	0.153	7.71	35	91.7	101	99	-0.895	27.2	72.5	96.3	104
Cc1nc2ccc(CN(C)c3ccc(C(=O)N[C@@H](CCC(=O)O)C(=O)O)s3)cc2c(=O)[nH]1 [Raltitrexed]	0.0857	> 10	-4.56	33.6	75.8	81.5	82.6	-7.91	-17.2	24.9	13	-5.41
COc1ccccc1OCC(O)CN1CCN(CC(=O)Nc2c(C)cccc2C)CC1 (stereo not drawn) [Ranolazine dihydrochloride]	> 10	> 10	-7.57	-13.7	-7.85	-21.5	-19	-2.04	2.97	-7.95	-0.947	15
COc1ccccc1OCC(O)CN1CCN(CC(=O)Nc2c(C)cccc2C)CC1 (stereo not drawn) [Ranolazine]	6.87	> 10	-0.081	5.69	8.98	2.99	74.3	-8.25	-12.6	-15.3	-15	8.96
CO[C@H]1C[C@@H]2CC[C@@H](C)[C@@](O)(O2)C(=O)C(=O)N2CCCC[C@H]2C(=O)O[C@H]([C@H](C)C[C@@H]2CC[C@@H](O)[C@H](OC)C2)CC(=O)[C@H](C)/C=C(\C)[C@@H](O)[C@@H](OC)C(=O)[C@H](C)C[C@H](C)/C=C/C=C/C=C/1C [Rapamycin]	> 10	> 10	4.81	4.98	3.36	17.6	18.4	-3	-2.75	2.91	0.723	24.6
Cc1nc(Nc2ccc(F)cc2)nc(N2CCc3ccccc3C2C)c1C (stereo not drawn) [Revaprazan hydrochloride]	> 10	> 10	-4.67	-1.6	-2.29	-13.6	-33.6	20.9	17.7	11	7.17	-10.8
C[C@]12CC[C@H](O)C[C@H]1CC[C@@H]1[C@@H]2CC[C@]2(C)[C@@](O)(c3ccoc3)CC[C@]12O [Rostafuroxin]	> 10	> 10	11.8	13.5	10	14.5	30.6	-0.895	11.7	13.9	5.09	13
